US20100113276A1, “USE OF N2-PHENYLAMIDINES AS HERBICIDES” (BAYER CROPSCIENCE AG, priority 2007, published 2010)

Assay: log P by HPLC on reversed-phase column (C18), EEC Directive 79/831 Annex V.A8
Assay type: physicochemical
Conditions: C18, 40° C.; for log p HCO2H: aqueous formic acid / acetonitrile; for log p H3PO4: 0.1% aqueous phosphoric acid / acetonitrile
Procedure: The log P data were determined in accordance with the EEC Directive 79/831 Annex V.A8 by HPLC (High Performance Liquid Chromatography) on a reversed-phase column (C18) using the following methods: […]
Calibration was carried out with the help of unbranched alkan-2-ones (consisting of 3 to 13 or 16 carbon atoms) with known logP values (determination of the logP values via the retention times by means of linear interpolation between two subsequent alkanones).

Row | SMILES | log p acidic | log p neutral | log p HCO2H | log p H3PO4
1 | Cc1cc(Oc2cc(F)cc(Br)c2)c(C)cc1N=CN(C)C [compound 1] | 2.17 | 5.11 | – | –
2 | CCN(C)C=Nc1cc(C)c(Oc2ccc(Cl)c(C(F)(F)F)c2)cc1C [compound 34] | 2.38 | – | – | –
3 | Cc1cc(Oc2ccc(Cl)c(C(F)(F)F)c2)c(C)cc1N=CN1CCCCC1 [compound 36] | – | 6.36 | 2.59 | –
4 | CCN(C)C=Nc1cc(C)c(Oc2ccc(Cl)c(C(C)(C)C)c2)cc1C [compound 50] | 2.69 | 5.96 | – | –
5 | CCN(C)C=Nc1cc(C)c(Oc2ccc(C#N)c(C(F)(F)F)c2)cc1C [compound 226] | 1.68 | – | – | –
6 | CCN(C)C=Nc1cc(C)c(CCc2ccc(C(F)(F)F)cc2)cc1C [compound 250] | – | – | 2.45 | –
7 | Cc1cc(Oc2cc(F)cc(Br)c2)c(C)cc1N=CN(C)C(C)C [compound 321] | 2.37 | 6.21 | – | –
8 | CCCN(C)C=Nc1cc(C)c(Oc2ccc(Br)c(C(C)C)c2)cc1C [compound 356] | 2.93 | 7.01 | – | –
9 | CCN(C)C=Nc1cc(C)c(Oc2cc(F)cc(C(F)(F)F)c2)cc1C [compound 371] | 2.31 | 5.54 | – | –
10 | CCN(C)C=Nc1cc(Cl)c(Oc2ccc(Cl)c(C(C)(C)C)c2)cc1C [compound 388] | – | 6.70 | 3.02 | –
11 | Cc1cc(-c2ccc(Cl)cc2C)c(C)cc1N=CN(C)C [compound 393] | 2.24 | 5.62 | – | –
12 | CCN(C)C=Nc1cc(C)c(-c2ccc(Cl)c(C)c2)cc1C [compound 398] | 2.27 | 5.59 | – | –
13 | Cc1cc(Oc2ccc(Cl)c(C(C)C)c2)c(Cl)cc1N=CN(C)C1CC1 [compound 402] | – | 6.60 | 2.96 | –
14 | CCN(C)C=Nc1cc(C)c(Oc2cc(Cl)cc(C(C)C)n2)cc1C [compound 407] | 2.18 | – | – | –
15 | CCN(C)C=Nc1cc(C)c(Oc2cccc(C(C)(CC)OC)c2)cc1C (stereo not shown) [compound 502] | 2.30 | – | – | –
16 | CCN(C)C=Nc1cc(C)c(Oc2ccc3ccccc3c2)cc1C [compound 538] | 2.38 | – | – | –
17 | CCN(C)C=Nc1cc(C)c(Oc2nc(C(C)C)ns2)cc1C [compound 547] | 1.74 | 4.33 | – | –
18 | Cc1cc(Oc2cc(Cl)cc(C(F)(F)F)c2)c(Cl)cc1N=CN1CCCC1 [compound 567] | 2.66 | – | – | –

Row | SMILES | log p acidic | log p neutral | log p HCO2H | log p H3PO4
19 | CCC(C)N(C)C=Nc1cc(Cl)c(Oc2ccc(Cl)c(C(C)C)c2)cc1C (stereo not shown) [compound 573] | 2.90 | 7.14 | 2.90 | –
20 | CCc1cc(Oc2cc(C)c(N=CN(C)CC)cc2Cl)ccc1Cl [compound 583] | – | 6.09 | 2.78 | –
21 | CCCN(C)C=Nc1cc(Cl)c(Oc2ccc(Cl)c(CC)c2)cc1C [compound 584] | – | 6.54 | 2.84 | –
22 | CCc1cc(Oc2cc(C)c(N=CN(C)C3CC3)cc2Cl)ccc1Cl [compound 585] | – | 6.34 | 2.89 | –
23 | CCc1cc(Oc2cc(C)c(N=CN3CCCCC3)cc2Cl)ccc1Cl [compound 587] | – | 6.73 | 2.74 | –
24 | CCN(C)C=Nc1cc(Cl)c(Oc2ccc(Br)c(C(C)C)c2)cc1C [compound 589] | – | 6.58 | 2.84 | –
25 | CCCN(C)C=Nc1cc(Cl)c(Oc2ccc(Br)c(C(C)C)c2)cc1C [compound 590] | 2.93 | 7.01 | – | –
26 | CCCN(C)C=Nc1cc(Cl)c(Oc2cc(C(C)(C)C)nn2C)cc1C [compound 597] | 1.90 | 5.09 | – | –
27 | Cc1cc(Oc2cc(C(C)(C)C)nn2C)c(Cl)cc1N=CN1CCCCC1 [compound 600] | 1.90 | 5.34 | – | –
28 | CCCN(C)C=Nc1cc(Cl)c(Oc2cc(C(C)C)nn2C)cc1C [compound 603] | 1.78 | 4.52 | – | –
29 | Cc1cc(Oc2cc(C(C)C)nn2C)c(Cl)cc1N=CN1CCCCC1C (stereo not shown) [compound 606] | 1.79 | 4.75 | – | –
30 | CCN(C)C=Nc1cc(Cl)c(Oc2nc(C(C)(C)C)ns2)cc1C [compound 608] | 2.01 | 5.31 | 2.01 | –
31 | Cc1cc(Oc2nc(C(C)(C)C)ns2)c(Cl)cc1N=CN1CCCCC1 [compound 610] | 2.21 | – | 2.21 | –
32 | Cc1cc(Oc2ncnc(Oc3ccc(Cl)cc3)c2F)c(Cl)cc1N=CN1CCCCC1 [compound 622] | – | – | 2.41 | –
33 | CCN(C)C=Nc1cc(F)c(-c2ccc(Cl)c(C(F)(F)F)c2)cc1C [compound 656] | 2.37 | – | – | –
34 | CCN(C)C=Nc1cc(F)c(-c2ccc(OC(C)(C)C)cc2)cc1C [compound 673] | 2.23 | – | – | –
35 | CCN(C)C=Nc1cc(F)c(-c2nnc(C3CC3)s2)cc1C [compound 681] | 1.32 | – | – | –

More lines, now with the values ahead:

Row | log p acidic | log p neutral | log p HCO2H | log p H3PO4 | SMILES
36 | 2.05 | 4.53 | – | – | CCN(C)C=Nc1cc(C)c(Oc2cccc(-c3cccnc3Cl)c2)cc1C [compound 130]
37 | 1.92 | 5.35 | 2.14 | – | Cc1cc(Oc2ccc(C#N)c(C(F)(F)F)c2)c(C)cc1N=CN1CCCCC1 [compound 228]
38 | – | – | 2.21 | – | CCN(C)C=Nc1cc(C)c(C=Cc2ccccc2C)cc1C [compound 270]
39 | – | – | 2.06 | – | CCN(C)C=Nc1cc(C)c(C=Cc2ccc(OC)cc2)cc1C [compound 286]
40 | 2.51 | – | – | – | CCN(C)C=Nc1cc(C)c(Oc2cccc(Oc3ccccc3)c2)cc1C [compound 290]
41 | 2.70 | 6.81 | – | – | Cc1cc(Oc2cc(Cl)cc(Br)c2)c(C)cc1N=CN(C)C(C)C [compound 328]
42 | – | – | 2.45 | – | CCN(C)C=Nc1cc(C)c(CCc2ccccc2F)cc1C [compound 345]
43 | – | – | 2.37 | – | Cc1cc(Oc2ccc(F)c(C(F)(F)F)c2)c(C)cc1N=CN(C)C [compound 365]
44 | 2.29 | – | – | – | Cc1cc(Oc2cc(F)cc(C(F)(F)F)c2)c(C)cc1N=CN1CCCCC1 [compound 373]
45 | – | 7.36 | – | – | Cc1cc(Oc2ccc(Cl)c(C(C)C)c2)c(C)cc1N=CN(C)C(C)C [compound 401]
46 | 2.96 | – | 2.72 | – | Cc1cc(Oc2cccc(C(C)(C)C)c2)c(C)cc1N=CN(C)C(C)C [compound 440]
47 | 2.71 | 5.74 | – | – | Cc1cc(-c2ccc(C(C)(C)C)cc2)c(C)cc1N=CN(C)C [compound 445]
48 | 2.69 | 6.30 | – | – | CCN(C)C=Nc1cc(C)c(-c2ccc(C(C)(C)C)cc2)cc1C [compound 446]
49 | – | – | – | 1.99 | CCN(C)C=Nc1cc(C)c(OCc2sc(Cl)nc2Cl)cc1C [compound 555]
50 | 2.76 | – | – | – | CCN(C)C=Nc1cc(C)c(Oc2nc(C(C)(C)C)c(Cl)s2)cc1C [compound 559]
51 | 2.51 | – | – | – | Cc1cc(Oc2cc(Cl)cc(C(F)(F)F)c2)c(Cl)cc1N=CN(C)C [compound 564]
52 | 2.64 | – | – | – | CCN(C)C=Nc1cc(Cl)c(Oc2cc(Cl)cc(C(F)(F)F)c2)cc1C [compound 565]
53 | 2.83 | – | – | – | CCCN(C)C=Nc1cc(Cl)c(Oc2cc(Cl)cc(C(F)(F)F)c2)cc1C [compound 566]
54 | 2.86 | – | – | – | Cc1cc(Oc2cc(Cl)cc(C(F)(F)F)c2)c(Cl)cc1N=CN1CCCCC1 [compound 568]

Row | log p acidic | log p neutral | log p HCO2H | log p H3PO4 | SMILES
55 | – | 6.37 | 2.95 | – | CCN(C)C=Nc1cc(Cl)c(Oc2ccc(Cl)c(C(C)C)c2)cc1C [compound 570]
56 | – | 6.79 | 3.03 | – | CCCN(C)C=Nc1cc(Cl)c(Oc2ccc(Cl)c(C(C)C)c2)cc1C [compound 571]
57 | – | 6.70 | 2.87 | – | Cc1cc(Oc2ccc(Cl)c(C(C)C)c2)c(Cl)cc1N=CN(C)C(C)C [compound 572]
58 | – | 6.94 | 3.24 | – | Cc1cc(Oc2ccc(Cl)c(C(C)(C)C)c2)c(Cl)cc1N=CN(C)C1CC1 [compound 577]
59 | 3.06 | – | – | – | CCCN(C)C=Nc1cc(Cl)c(Oc2ccc(Cl)c(C(C)(C)C)c2)cc1C [compound 578]
60 | 3.19 | 7.36 | 3.19 | – | CCC(C)N(C)C=Nc1cc(Cl)c(Oc2ccc(Cl)c(C(C)(C)C)c2)cc1C (stereo not shown) [compound 579]
61 | 3.21 | 6.92 | – | – | Cc1cc(Oc2ccc(Br)c(C(C)C)c2)c(Cl)cc1N=CN(C)C(C)C [compound 591]
62 | 1.84 | 4.41 | 1.84 | – | CCN(C)C=Nc1cc(Cl)c(Oc2cc(C(C)(C)C)nn2C)cc1C [compound 596]
63 | 1.65 | 4.04 | – | – | CCN(C)C=Nc1cc(Cl)c(Oc2cc(C(C)C)nn2C)cc1C [compound 602]
64 | 1.72 | – | – | – | CCN(C)C=Nc1cc(Cl)c(Oc2nc(C3(Cl)CC3)ns2)cc1C [compound 612]
65 | 1.98 | – | – | – | Cc1cc(Oc2nc(C3(Cl)CC3)ns2)c(Cl)cc1N=CN1CCCCC1 [compound 614]
66 | – | – | 2.20 | – | CCN(C)C=Nc1cc(Cl)c(Oc2ncnc(Oc3ccc(Cl)cc3)c2F)cc1C [compound 620]
67 | – | – | – | 2.04 | Cc1cc(-c2ccc(Cl)cc2)c(F)cc1N=CN(C)C [compound 663]
68 | – | – | – | 2.13 | CCN(C)C=Nc1cc(F)c(-c2ccc(Cl)cc2)cc1C [compound 664]
69 | – | – | – | 2.22 | Cc1cc(-c2ccc(Cl)cc2)c(F)cc1N=CN(C)C(C)C [compound 665]
70 | 2.38 | – | – | – | CCN(C)C=Nc1cc(F)c(-c2ccc(C(C)(C)C)cc2)cc1C [compound 669]
71 | 2.67 | – | – | – | CCN(C)C=Nc1cc(Br)c(Oc2ccc(Cl)c(C(C)(C)C)c2)cc1C [compound 697]
72 | 2.21 | – | – | – | CCN(C)C=Nc1cc(OC)c(Oc2ccc(Cl)c(C(F)(F)F)c2)cc1C [compound 721]
